The record followed here is PMC7140498, “Predicting liver cytosol stability of small molecules” (Journal of Cheminformatics, 2020).

In general, half-life refers to how long it takes for the measured level to halve. Read a low half-life as rapid decline.

A short description of data set [1]: Metabolic stability assay (substrate depletion) in mouse liver cytosol fractions. Conditions: external validation, sheet Mouse; for half-life at 1 μM: male, CD-1, mouse, liver cytosol fractions, pH 7.4, t1/2 [min] (Right), right compound; for t1/2 [min] (Left): left compound.
Description: (§1) Our assay (384-well format) consisted of two parts; a robotic system for incubation and sample clean up and an integrated LC/MS method to calculate the percent remaining of parent compound. Briefly, each reaction mixture (110 μL) consisted of a test compound (1 μM) and either human or mouse cytosol fractions (2 mg/mL) in phosphate buffer (100 mM) at pH 7.4. Samples were incubated in 384-well plates at 37 °C for 0, 5, 10, 15, 30 and 60 min. Sample analysis and t1/2 calculations were performed using a previously described method [15]. […] A set of control compounds for low and high cytosolic stability were routinely run in each plate.
Data set [2] can be described thus: Metabolic stability assay (substrate depletion) in human liver cytosol fractions. As to conditions: for half-life at 1 μM: both, human, liver cytosol fractions.
Description: as §1
Where [3] appears, read: external validation, sheet Human, left compound.
Setting [4] is: pH 7.4, t1/2 [min] (Left), external validation, sheet Human, left compound.
Where [5] appears, read: pH 7.4, t1/2 [min] (left), in-house library pair, human transforms, left compound.
Setting [6] is: pH 7.4, t1/2 [min] (Right), external validation, sheet Human, right compound.

With `CCN1c2cc(C(=O)Nc3ccc(Cl)c(F)c3)ccc2C(=O)N2CCCCC21` (centres unmarked), the half-life at 1 μM in data set [1] was determined as 0.412 h.
Still for that read-out and setting: the result for `CCN1c2cc(C(=O)Nc3ccc(Cl)c(F)c3)ccc2C(=O)N2CCCCCC21` (centres unmarked) reads 0.904 h.
With `CCN1c2cc(C(=O)Nc3ccc(Cl)cc3)ccc2C(=O)N2CCCCC21` (centres unmarked), the “t1/2 [min] (Left)” value in data set [1] is 25.75 min.
Same read-out and setting: the result for `CCN1c2cc(C(=O)Nc3ccc(Cl)cc3)ccc2C(=O)N2CCCCCC21` (centres unmarked) reads 56.1 min.
For `CCOc1cc(=O)n2c(c1C(=O)Nc1ccc(Cl)c(F)c1)CCCC2`, in data set [1], the half-life at 1 μM stood at 1.34 h.
`CCOc1cc(=O)n2c(c1C(=O)Nc1ccc(Cl)cc1)CCCC2`: in data set [1], the “t1/2 [min] (Left)” value was found to be 94.08 min.
Regarding `CN1CCN(c2nc3c(c(=O)[nH]2)CCN(Cc2ccc(Cl)c(F)c2)CC3)CC1`, in data set [1], the half-life at 1 μM is over 2 h.
As to `CN1C(=O)CO[C@H]2CN(Cc3ccc(Cl)cc3)C[C@H]21`, in data set [1], the “t1/2 [min] (Left)” value was 116.11 min.
Take `CN1c2cc(C(=O)Nc3ccc(Cl)c(F)c3)ccc2C(=O)N2CCCCC21` (centres unmarked): the half-life at 1 μM in data set [1] came out at 0.524 h.
The same measure, in the same setting: the value for `CN1c2cc(C(=O)Nc3ccc(Cl)c(F)c3)ccc2C(=O)N2CCCCCC21` (centres unmarked) was 0.383 h.
Regarding `CN1c2cc(C(=O)Nc3ccc(Cl)cc3)ccc2C(=O)N2CCCCC21` (centres unmarked), in data set [1], the “t1/2 [min] (Left)” value was 83.39 min.
As for `CN1c2cc(C(=O)Nc3ccc(Cl)cc3)ccc2C(=O)N2CCCCCC21` (centres unmarked), the “t1/2 [min] (Left)” value in data set [1] was determined as 63.37 min.
Turning to `CN(C)c1nc2c(c(=O)[nH]1)CCN(Cc1ccc(Cl)c(F)c1)CC2`, the half-life at 1 μM in data set [1] was over 2 h.
Regarding `CN(C)c1nc2c(c(=O)[nH]1)CCN(Cc1ccc(Cl)cc1)CC2`, the “t1/2 [min] (Left)” value in data set [1] is 114.48 min.
Take `CN(Cc1cccnc1)c1nc2c(c(=O)[nH]1)CCN(Cc1ccc(Cl)cc1)CC2`: the “t1/2 [min] (Left)” value in data set [1] was 74.11 min.
`COCC1CN(C(C)=O)CC12CCN(Cc1ccc(Cl)c(F)c1)CC2` (centres unmarked): the half-life at 1 μM in data set [1] turned out to be 1.36 h.
Still for that read-out and setting: the result for `COc1cc(=O)n2c(c1C(=O)Nc1ccc(Cl)c(F)c1)CCCC2` reads 1.47 h.
Turning to `COc1ccc(CN2C[C@H]3CN(Cc4ccc(Cl)cc4)CCN3C2=O)cc1`, in data set [1], the “t1/2 [min] (Left)” value is on record as 82.24 min.
In the case of `COc1cccc(C(=O)NCC2CCCN(Cc3cc[nH]n3)C2)c1OC` (centres unmarked), the half-life at 1 μM in data set [1] is over 2 h.
As to `Cc1cccc(-c2noc([C@@H]3C[C@@H](O)CN3Cc3ccc(Cl)cc3)n2)c1`, in data set [1], the “t1/2 [min] (Left)” value is listed as 23.64 min.
Still for that read-out and setting: the result for `FC(F)(F)c1ccc2nc([C@H]3CCN(Cc4ccc(Cl)cc4)C3)[nH]c2c1` reads 56.67 min.
`O=C1NC2(CCN(C(=O)c3ccc(Cl)c(F)c3)CC2)CC1c1ccccc1` (centres unmarked): the half-life at 1 μM in data set [1] was determined as 1.43 h.
On the same count and under the same terms, the value for `O=C1[C@H]2CN(Cc3ccc(Cl)c(F)c3)C[C@H]2C(=O)N1CCc1ccccc1` was 0.621 h.
As for `O=C1[C@H]2CN(Cc3ccc(Cl)c(F)c3)C[C@H]2C(=O)N1Cc1ccc2c(c1)OCO2`, the half-life at 1 μM in data set [1] was determined as 0.921 h.
`O=C1[C@H]2CN(Cc3ccc(Cl)cc3)C[C@H]2C(=O)N1CCc1ccccc1`: in data set [1], the “t1/2 [min] (Left)” value is recorded as 47.51 min.
For `O=C1[C@H]2CN(Cc3ccc(Cl)cc3)C[C@H]2C(=O)N1Cc1ccc2c(c1)OCO2`, in data set [1], the “t1/2 [min] (Left)” value was determined as 66.66 min.
On to `O=C(Nc1ccc(-c2nnc3n2CCCC3)cc1)c1ccc(Cl)cc1`, for which the “t1/2 [min] (Left)” value in data set [1] stood at 117.12 min.
On the same count and under the same terms, the result for `O=C(Nc1cccc(-c2nnc3n2CCCC3)c1)c1ccc(Cl)cc1` reads 56.47 min.
In the case of `O=c1[nH]c(N2CCOCC2)nc2c1CCN(Cc1ccc(Cl)c(F)c1)CC2`, the half-life at 1 μM in data set [1] was 1.54 h.
Still for that read-out and setting: the result for `CN(C1CCOCC1)C1CCN(C(=O)c2cc[nH]n2)CC1` [CN(C1CCOCC1)C1CCN(C(=O)c2cc[nH]n2)CC1] reads over 2 h; that for `COCC1CN(Cc2ccc(Cl)c(F)c2)CC12CCNCC2` (centres unmarked) [COCC1CN(Cc2ccc(Cl)c(F)c2)CC12CCNCC2], over 2 h.
On to `Cc1noc(-c2nc(-c3ccc(Cl)cc3)no2)n1` [Cc1noc(-c2nc(-c3ccc(Cl)cc3)no2)n1], for which, in data set [1], the “t1/2 [min] (Left)” value was 15.6 min.
Take `Fc1cccc(-c2noc(-c3nc(-c4ccncc4)no3)n2)c1` [Fc1cccc(-c2noc(-c3nc(-c4ccncc4)no3)n2)c1]: the “t1/2 [min] (Left)” value in data set [2] (setting [3]) was determined as 26.4 min.
In the case of `Fc1cccc(Nc2ncc(-c3cccnc3)c3c2OCC3)c1` [Fc1cccc(Nc2ncc(-c3cccnc3)c3c2OCC3)c1], in data set [2] (setting [3]), the “t1/2 [min] (Left)” value is on record as 76.6 min.
On to `N#Cc1ccc(C(=O)N2CCCOCCNC(=O)CC2)cc1` [N#Cc1ccc(C(=O)N2CCCOCCNC(=O)CC2)cc1], for which the half-life at 1 μM in data set [2] (setting [4]) and in data set [2] (setting [5]) was over 2 h in each case.
Regarding `N#Cc1ccc(CN2CC(Oc3ccc(F)c(F)c3)C2)cc1` [N#Cc1ccc(CN2CC(Oc3ccc(F)c(F)c3)C2)cc1], the “t1/2 [min] (Left)” value in data set [2] (setting [3]) worked out at 71.4 min.
`N#Cc1ccc(CN2CC(Oc3ccc(F)cc3F)C2)cc1` [N#Cc1ccc(CN2CC(Oc3ccc(F)cc3F)C2)cc1]: the half-life at 1 μM in data set [2] (setting [4]) and in data set [2] (setting [5]) was 1.05 h throughout.
Take `N#Cc1ccc(CN2CCC(N3CCNC3=O)CC2)cc1` [N#Cc1ccc(CN2CCC(N3CCNC3=O)CC2)cc1]: the “t1/2 [min] (Left)” value in data set [2] (setting [3]) is given as 93.2 min.
Consider `N#Cc1cccc(-c2c(C(=O)NC3CC3)nc3sccn23)c1` [N#Cc1cccc(-c2c(C(=O)NC3CC3)nc3sccn23)c1], for which, in data set [2] (setting [3]), the “t1/2 [min] (Left)” value came out at 95.2 min.
Same read-out and setting: the result for `N#Cc1cccc(CN2CCOC[C@H](O)C2)c1` [N#Cc1cccc(CN2CCOC[C@H](O)C2)c1] reads 51.1 min; that for `N#Cc1ccccc1CN1CCC2(CC1)CC(O)CCO2` (centres unmarked) [N#Cc1ccccc1CN1CCC2(CC1)CC(O)CCO2], 80.3 min.
For `O=C1OCC2(CCN(Cc3cc[nH]n3)C2)N1CCN1CCOCC1` (centres unmarked) [O=C1OCC2(CCN(Cc3cc[nH]n3)C2)N1CCN1CCOCC1], the half-life at 1 μM in data set [1] was over 2 h.
On to `O=C(Nc1ccc(-c2nnc3n2CCCC3)cc1)c1cc[nH]n1` [O=C(Nc1ccc(-c2nnc3n2CCCC3)cc1)c1cc[nH]n1], for which the half-life at 1 μM in data set [1] is over 2 h.
Regarding `O=C(Nc1cccc(-c2nnc3n2CCCC3)c1)c1cc[nH]n1` [O=C(Nc1cccc(-c2nnc3n2CCCC3)c1)c1cc[nH]n1], the half-life at 1 μM in data set [1] was over 2 h.
Take `O=C(Nc1cnc(-c2ccccc2)nc1)c1cccc(F)c1` [O=C(Nc1cnc(-c2ccccc2)nc1)c1cccc(F)c1]: the “t1/2 [min] (Left)” value in data set [2] (setting [3]) was found to be 52 min.
Consider `O=C(c1cccs1)N1CCC(Oc2cccc(F)c2)C1` (centres unmarked) [O=C(c1cccs1)N1CCC(Oc2cccc(F)c2)C1], for which the “t1/2 [min] (Left)” value in data set [2] (setting [3]) was determined as 17.4 min.
Compound `O=C(c1cccs1)N1CCC(Oc2ccccc2)C1` (centres unmarked) [O=C(c1cccs1)N1CCC(Oc2ccccc2)C1] showed a half-life at 1 μM in data set [2] (setting [6]) of 0.638 h.
On to `O=C(c1ccoc1)N1CCC(Oc2cccc(F)c2)C1` (centres unmarked) [O=C(c1ccoc1)N1CCC(Oc2cccc(F)c2)C1], for which the “t1/2 [min] (Left)” value in data set [2] (setting [3]) was found to be 70.5 min.
For the compound `O=C(c1ccoc1)N1CCC(Oc2ccccc2)C1` (centres unmarked) [O=C(c1ccoc1)N1CCC(Oc2ccccc2)C1], in data set [2] (setting [6]), the half-life at 1 μM was over 2 h.
`O=C(c1ccsc1)N1CCC(Oc2cccc(F)c2)C1` (centres unmarked) [O=C(c1ccsc1)N1CCC(Oc2cccc(F)c2)C1]: the half-life at 1 μM in data set [2] (setting [4]) and in data set [2] (setting [5]) was 1.38 h throughout.
Regarding `O=c1c2nc(Nc3cccc(F)c3)ccc2ncn1-c1ccccc1` [O=c1c2nc(Nc3cccc(F)c3)ccc2ncn1-c1ccccc1], the “t1/2 [min] (Left)” value in data set [2] (setting [3]) is recorded as 93.9 min.
On the same count and under the same terms, the result for `O=c1c2nc(Nc3cccc(F)c3)ccc2ncn1-c1cccnc1` [O=c1c2nc(Nc3cccc(F)c3)ccc2ncn1-c1cccnc1] reads 96.4 min.
Consider `OCC1(CN2CCCC2)CCN(Cc2ccc(Cl)c(F)c2)CC1` [OCC1(CN2CCCC2)CCN(Cc2ccc(Cl)c(F)c2)CC1], for which the half-life at 1 μM in data set [1] amounted to 1.21 h.
